Assay results from paper PMC12090182, “Repurposing of the RIPK1-Selective Benzo[1,4]oxazepin-4-one Scaffold for the Development of a Type III LIMK1/2 Inhibitor” (ACS Chemical Biology, 2025).
Read-outs that look alike come from different tables or passages of the source.

Tested on: U2OS cells
Assay type: cell-based
Details: U2OS
Method in brief: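 HEK293T and U2OS cells (DMEM) and MRC-9 fibroblasts (EMEM) exposed to compounds at 1 and 10 μM. Live-cell confocal imaging of cell shape and fluorescence before and at 12, 24 and 48 h. Normalized to 0.1% DMSO; biological duplicates with SEM.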

Structure (SMILES): CN1C(=O)[C@@H](N2CCc3c(nn(Cc4ccccc4)c3C(N)=O)C2=O)COc2cc(Cl)ccc21 [Compound 10, (S)-2-benzyl-6-(8-chloro-5-methyl-4-oxo-2,3,4,5-tetrahydrobenzo[b][1,4]oxazepin-3-yl)-7-oxo-4,5,6,7-tetrahydro-2H-pyrazolo[3,4-c]pyridine-3-carboxamide]
- Cell count normalized to cells treated with DMSO control (1 µM, 0 h, replicate 1): 1.139
- Cell count per well (1 µM, 0 h, replicate 1): 237
- Population Fragmented Nuclei (%) (1 µM, 0 h, replicate 1): 37.05%
- Population Healthy Nuclei (%) (1 µM, 0 h, replicate 1): 52.23%
- Population Pyknosed Nuclei (%) (1 µM, 0 h, replicate 1): 10.71%
- Population apoptotic cell (%) (1 µM, 0 h, replicate 1): 66.67%
- Population cell that influence microtubule strucutre (%) (1 µM, 0 h, replicate 1): 2.56%
- Population with increased mitochondrial mass (%) (1 µM, 0 h, replicate 1): 0.85%
- Population with membrane disruption (%) (1 µM, 0 h, replicate 1): 5.98%
- Cell count normalized to cells treated with DMSO control (1 µM, 0 h, replicate 2): 0.8633
- Cell count per well (1 µM, 0 h, replicate 2): 74
- Population Fragmented Nuclei (%) (1 µM, 0 h, replicate 2): 16.44%
- Population Healthy Nuclei (%) (1 µM, 0 h, replicate 2): 79.45%
- Population Pyknosed Nuclei (%) (1 µM, 0 h, replicate 2): 4.11%
- Population apoptotic cell (%) (1 µM, 0 h, replicate 2): 33.33%
- Population cell that influence microtubule strucutre (%) (1 µM, 0 h, replicate 2): 1.72%
- Population with increased mitochondrial mass (%) (1 µM, 0 h, replicate 2): 1.72%
- Population with membrane disruption (%) (1 µM, 0 h, replicate 2): 3.45%
- Cell count normalized to cells treated with DMSO control (1 µM, 12 h, replicate 1): 1.055
- Cell count per well (1 µM, 12 h, replicate 1): 279
- Population Fragmented Nuclei (%) (1 µM, 12 h, replicate 1): 23.90%
- Population Healthy Nuclei (%) (1 µM, 12 h, replicate 1): 65.44%
- Population Pyknosed Nuclei (%) (1 µM, 12 h, replicate 1): 10.66%
- Population apoptotic cell (%) (1 µM, 12 h, replicate 1): 75.86%
- Population cell that influence microtubule strucutre (%) (1 µM, 12 h, replicate 1): 2.81%
- Population with increased mitochondrial mass (%) (1 µM, 12 h, replicate 1): 1.69%
- Population with membrane disruption (%) (1 µM, 12 h, replicate 1): 7.87%
- Cell count normalized to cells treated with DMSO control (1 µM, 12 h, replicate 2): 0.9215
- Cell count per well (1 µM, 12 h, replicate 2): 109
- Population Fragmented Nuclei (%) (1 µM, 12 h, replicate 2): 11.11%
- Population Healthy Nuclei (%) (1 µM, 12 h, replicate 2): 84.26%
- Population Pyknosed Nuclei (%) (1 µM, 12 h, replicate 2): 4.63%
- Population apoptotic cell (%) (1 µM, 12 h, replicate 2): 80.00%
- Population cell that influence microtubule strucutre (%) (1 µM, 12 h, replicate 2): 2.20%
- Population with increased mitochondrial mass (%) (1 µM, 12 h, replicate 2): 2.20%
- Population with membrane disruption (%) (1 µM, 12 h, replicate 2): 3.30%
- Cell count normalized to cells treated with DMSO control (1 µM, 24 h, replicate 1): 1.136
- Cell count per well (1 µM, 24 h, replicate 1): 354
- Population Fragmented Nuclei (%) (1 µM, 24 h, replicate 1): 25.72%
- Population Healthy Nuclei (%) (1 µM, 24 h, replicate 1): 65.90%
- Population Pyknosed Nuclei (%) (1 µM, 24 h, replicate 1): 8.38%
- Population apoptotic cell (%) (1 µM, 24 h, replicate 1): 82.76%
- Population cell that influence microtubule strucutre (%) (1 µM, 24 h, replicate 1): 4.39%
- Population with increased mitochondrial mass (%) (1 µM, 24 h, replicate 1): 2.63%
- Population with membrane disruption (%) (1 µM, 24 h, replicate 1): 7.02%
- Cell count normalized to cells treated with DMSO control (1 µM, 24 h, replicate 2): 0.9633
- Cell count per well (1 µM, 24 h, replicate 2): 137
- Population Fragmented Nuclei (%) (1 µM, 24 h, replicate 2): 12.50%
- Population Healthy Nuclei (%) (1 µM, 24 h, replicate 2): 81.62%
- Population Pyknosed Nuclei (%) (1 µM, 24 h, replicate 2): 5.88%
- Population apoptotic cell (%) (1 µM, 24 h, replicate 2): 87.50%
- Population cell that influence microtubule strucutre (%) (1 µM, 24 h, replicate 2): 1.80%
- Population with increased mitochondrial mass (%) (1 µM, 24 h, replicate 2): 1.80%
- Population with membrane disruption (%) (1 µM, 24 h, replicate 2): 3.60%
- Cell count normalized to cells treated with DMSO control (1 µM, 48 h, replicate 1): 1.128
- Cell count per well (1 µM, 48 h, replicate 1): 502
- Population Fragmented Nuclei (%) (1 µM, 48 h, replicate 1): 21.34%
- Population Healthy Nuclei (%) (1 µM, 48 h, replicate 1): 69.72%
- Population Pyknosed Nuclei (%) (1 µM, 48 h, replicate 1): 8.94%
- Population apoptotic cell (%) (1 µM, 48 h, replicate 1): 86.36%
- Population cell that influence microtubule strucutre (%) (1 µM, 48 h, replicate 1): 2.04%
- Population with increased mitochondrial mass (%) (1 µM, 48 h, replicate 1): 3.21%
- Population with membrane disruption (%) (1 µM, 48 h, replicate 1): 6.41%
- Cell count normalized to cells treated with DMSO control (1 µM, 48 h, replicate 2): 0.973
- Cell count per well (1 µM, 48 h, replicate 2): 201
- Population Fragmented Nuclei (%) (1 µM, 48 h, replicate 2): 6.57%
- Population Healthy Nuclei (%) (1 µM, 48 h, replicate 2): 83.33%
- Population Pyknosed Nuclei (%) (1 µM, 48 h, replicate 2): 10.10%
- Population apoptotic cell (%) (1 µM, 48 h, replicate 2): 85.00%
- Population cell that influence microtubule strucutre (%) (1 µM, 48 h, replicate 2): 1.82%
- Population with increased mitochondrial mass (%) (1 µM, 48 h, replicate 2): 2.42%
- Population with membrane disruption (%) (1 µM, 48 h, replicate 2): 4.85%
- cytotoxicity (1 μM): no cytotoxicity
- Cell count normalized to cells treated with DMSO control (10 µM, 0 h, replicate 1): 1.1102
- Cell count per well (10 µM, 0 h, replicate 1): 231
- Population Fragmented Nuclei (%) (10 µM, 0 h, replicate 1): 38.84%
- Population Healthy Nuclei (%) (10 µM, 0 h, replicate 1): 51.34%
- Population Pyknosed Nuclei (%) (10 µM, 0 h, replicate 1): 9.82%
- Population apoptotic cell (%) (10 µM, 0 h, replicate 1): 95.45%
- Population cell that influence microtubule strucutre (%) (10 µM, 0 h, replicate 1): 3.48%
- Population with increased mitochondrial mass (%) (10 µM, 0 h, replicate 1): 3.48%
- Population with membrane disruption (%) (10 µM, 0 h, replicate 1): 6.09%
- Cell count normalized to cells treated with DMSO control (10 µM, 0 h, replicate 2): 1.062
- Cell count per well (10 µM, 0 h, replicate 2): 91
- Population Fragmented Nuclei (%) (10 µM, 0 h, replicate 2): 26.19%
- Population Healthy Nuclei (%) (10 µM, 0 h, replicate 2): 64.29%
- Population Pyknosed Nuclei (%) (10 µM, 0 h, replicate 2): 9.52%
- Population apoptotic cell (%) (10 µM, 0 h, replicate 2): 100.00%
- Population cell that influence microtubule strucutre (%) (10 µM, 0 h, replicate 2): 3.70%
- Population with increased mitochondrial mass (%) (10 µM, 0 h, replicate 2): 3.70%
- Population with membrane disruption (%) (10 µM, 0 h, replicate 2): 7.41%
- Cell count normalized to cells treated with DMSO control (10 µM, 12 h, replicate 1): 1.017
- Cell count per well (10 µM, 12 h, replicate 1): 269
- Population Fragmented Nuclei (%) (10 µM, 12 h, replicate 1): 26.62%
- Population Healthy Nuclei (%) (10 µM, 12 h, replicate 1): 63.50%
- Population Pyknosed Nuclei (%) (10 µM, 12 h, replicate 1): 9.89%
- Population apoptotic cell (%) (10 µM, 12 h, replicate 1): 73.08%
- Population cell that influence microtubule strucutre (%) (10 µM, 12 h, replicate 1): 4.19%
- Population with increased mitochondrial mass (%) (10 µM, 12 h, replicate 1): 6.59%
- Population with membrane disruption (%) (10 µM, 12 h, replicate 1): 8.38%
- Cell count normalized to cells treated with DMSO control (10 µM, 12 h, replicate 2): 0.9722
- Cell count per well (10 µM, 12 h, replicate 2): 115
- Population Fragmented Nuclei (%) (10 µM, 12 h, replicate 2): 22.52%
- Population Healthy Nuclei (%) (10 µM, 12 h, replicate 2): 63.96%
- Population Pyknosed Nuclei (%) (10 µM, 12 h, replicate 2): 13.51%
- Population apoptotic cell (%) (10 µM, 12 h, replicate 2): 100.00%
- Population cell that influence microtubule strucutre (%) (10 µM, 12 h, replicate 2): 7.04%
- Population with increased mitochondrial mass (%) (10 µM, 12 h, replicate 2): 9.86%
- Population with membrane disruption (%) (10 µM, 12 h, replicate 2): 7.04%
- Cell count normalized to cells treated with DMSO control (10 µM, 24 h, replicate 1): 0.9881
- Cell count per well (10 µM, 24 h, replicate 1): 308
- Population Fragmented Nuclei (%) (10 µM, 24 h, replicate 1): 23.59%
- Population Healthy Nuclei (%) (10 µM, 24 h, replicate 1): 66.78%
- Population Pyknosed Nuclei (%) (10 µM, 24 h, replicate 1): 9.63%
- Population apoptotic cell (%) (10 µM, 24 h, replicate 1): 96.55%
- Population cell that influence microtubule strucutre (%) (10 µM, 24 h, replicate 1): 6.97%
- Population with increased mitochondrial mass (%) (10 µM, 24 h, replicate 1): 4.98%
- Population with membrane disruption (%) (10 µM, 24 h, replicate 1): 5.97%
- Cell count normalized to cells treated with DMSO control (10 µM, 24 h, replicate 2): 0.886
- Cell count per well (10 µM, 24 h, replicate 2): 126
- Population Fragmented Nuclei (%) (10 µM, 24 h, replicate 2): 18.18%
- Population Healthy Nuclei (%) (10 µM, 24 h, replicate 2): 71.90%
- Population Pyknosed Nuclei (%) (10 µM, 24 h, replicate 2): 9.92%
- Population apoptotic cell (%) (10 µM, 24 h, replicate 2): 100.00%
- Population cell that influence microtubule strucutre (%) (10 µM, 24 h, replicate 2): 6.90%
- Population with increased mitochondrial mass (%) (10 µM, 24 h, replicate 2): 6.90%
- Population with membrane disruption (%) (10 µM, 24 h, replicate 2): 10.34%
- Cell count normalized to cells treated with DMSO control (10 µM, 48 h, replicate 1): 0.9437
- Cell count per well (10 µM, 48 h, replicate 1): 420
- Population Fragmented Nuclei (%) (10 µM, 48 h, replicate 1): 19.22%
- Population Healthy Nuclei (%) (10 µM, 48 h, replicate 1): 67.40%
- Population Pyknosed Nuclei (%) (10 µM, 48 h, replicate 1): 13.38%
- Population apoptotic cell (%) (10 µM, 48 h, replicate 1): 90.91%
- Population cell that influence microtubule strucutre (%) (10 µM, 48 h, replicate 1): 3.61%
- Population with increased mitochondrial mass (%) (10 µM, 48 h, replicate 1): 3.97%
- Population with membrane disruption (%) (10 µM, 48 h, replicate 1): 5.78%
- Cell count normalized to cells treated with DMSO control (10 µM, 48 h, replicate 2): 0.7019
- Cell count per well (10 µM, 48 h, replicate 2): 145
- Population Fragmented Nuclei (%) (10 µM, 48 h, replicate 2): 21.28%
- Population Healthy Nuclei (%) (10 µM, 48 h, replicate 2): 65.96%
- Population Pyknosed Nuclei (%) (10 µM, 48 h, replicate 2): 12.77%
- Population apoptotic cell (%) (10 µM, 48 h, replicate 2): 83.33%
- Population cell that influence microtubule strucutre (%) (10 µM, 48 h, replicate 2): 7.53%
- Population with increased mitochondrial mass (%) (10 µM, 48 h, replicate 2): 7.53%
- Population with membrane disruption (%) (10 µM, 48 h, replicate 2): 15.05%
- impact on tubulin, mitochondrial mass, and cellular permeability in healthy cells (1 μM (Figure 6)): comparable to that of the 0.1% DMSO control
